Reference: patent publication US20230322717A1, “SOLID FORM OF PYRAZINE SUBSTITUTED NICOTINAMIDE, AND PREPARATION AND USE THEREOF” (Shenzhen TargetRx, Inc., priority 2020, published 2023)
In brackets after ≈: the same amount, converted by molar mass.

Experiments:
Format in all cases: physicochemical
[1] = Dynamic moisture adsorption and desorption analysis (DVS); settings: for crystal form after DVS test (XRPD): before and after DVS test; for hygroscopicity (DVS): moisture range 0% to 90%
Protocol: The instrument model used for dynamic moisture adsorption and desorption analysis was IGA Sorp (Hidentity Isochema). The samples were measured in a gradient mode with a moisture range of 0% to 90%, wherein the humidity increment of each gradient was 10%.

[2] = Stability study of the crystal form I of compound A and the crystal form I of compound A p-toluenesulfonate (HPLC, XRPD)
Protocol: A certain amount of samples of the crystal form I of compound A and the crystal form I of compound A p-toluenesulfonate (Batch No.: PTSA-A1) were placed in a stability test chamber, and kept at 40° C./75%RH and 60° C. for 7 days, respectively. The samples were tested by HPLC and XRPD at various time points.

[3] = Solubility study in SGF, FaSSIF and FeSSIF (HPLC of filtrate, XRPD of solid); settings: for Crystal form: XRPD of solid
Protocol: The solubilities of the crystal form I of compound A and the crystal form I of compound A p-toluenesulfonate in SGF (simulated gastric fluid), FaSSIF (fasted state simulated intestinal fluid) and FeSSIF (fed state simulated intestinal fluid) were studied.
The solubilities of samples in SGF, FaSSIF and FeSSIF at 37° C. for 24 hours were determined. 40 mg of the sample was placed in a sample bottle, and 1.5 mL of solvent was added. The mixture was mixed well, and shaken on a shaker at 200 rpm for 24 hours. The suspension was filtered at 0.5, 2 and 24 hours. The filtrate was analyzed by HPLC, and the solid was tested by XRPD.

[4] = Solubility study of the starting material (the crystal form I of compound A) in different solvents
Protocol: About 2 mg of the starting material was weighed and added into a sample bottle, and different solvents were added respectively, until the starting material was dissolved.

[5] = Stability study of the crystal form VI of compound A (high temperature, high humidity, light)

With `Cc1ccc(S(=O)(=O)O)cc1.O=C(Nc1ccc(OC(F)(F)Cl)cc1)c1cnc(N2CC[C@@H](F)C2)c(-c2cnccn2)c1` [(R)-N-(4-(chlorodifluoromethoxy)phenyl)-6-(3-fluoropyrrolidin-1-yl)-5-(pyrazin-2-yl)nicotinamide p-toluenesulfonate] the water absorption ([1]; 0-80%RH) was “about 0.39%”, the water absorption ([1]; 0-90%RH) was “about 0.61%” and the “crystal form after DVS test (XRPD)” value [1] was “not changed”. For the same molecule, the “hygroscopicity (DVS)” value [1] was “slightly hygroscopic”, the “crystal form stability (XRPD)” value ([2]; 7 days at 40° C./75% RH and 60° C.) was “remained unchanged” and the “crystal form of the undissolved solid (XRPD)” value ([3]; FaSSIF and FeSSIF for 0.5 hours) was “changed”. The “solubility compared with the other form” value ([3]; FaSSIF and FeSSIF vehicles, 24 hours, 37° C.) was “higher solubility than that of the free base”, the “crystal form of the undissolved solid (XRPD)” value ([3]; SGF for 24 hours) was “changed” and the “dependence of solubility on pH” value ([3]; SGF, FaSSIF, FeSSIF, 37° C.) was “affected by pH value”. For the same molecule, the “solubility in a solution with a higher pH value” ([3]; after 2 hours) was “higher solubility”.
In the case of `O=C(Nc1ccc(OC(F)(F)Cl)cc1)c1cnc(N2CC[C@@H](F)C2)c(-c2cnccn2)c1` [The crystal form I of compound A], the Purity ([2]; 40° C./75% RH, Day 0, HPLC) is reported as 96.1%, the Purity ([2]; 40° C./75% RH, Day 3, HPLC) is reported as 97.1% and the Crystal form ([2]; 40° C./75% RH, Day 3, XRPD) is reported as “Initial crystal form”. The Purity ([2]; 40° C./75% RH, Day 7, HPLC) was 97.1%, the Crystal form ([2]; 40° C./75% RH, Day 7, XRPD) was “Initial crystal form” and the Purity ([2]; 60° C., Day 0, HPLC) was 96.1%. For the same molecule, the Purity ([2]; 60° C., Day 3, HPLC) was 96.7%, the Crystal form ([2]; 60° C., Day 3, XRPD) was “Initial crystal form” and the Purity ([2]; 60° C., Day 7, HPLC) was 97.1%. For the same molecule, the Crystal form ([2]; 60° C., Day 7, XRPD) was “Initial crystal form”, the “Solubility” value ([3]; FaSSIF, 37° C., 0.5 h) was 4.2 µg/mL (≈ 9.05 µM) and the pH ([3]; FaSSIF, 37° C., 0.5 h) was 6.62. For the same molecule, the Crystal form ([3]; FaSSIF, 37° C., 0.5 h) was “Initial crystal form”, the “Solubility” value ([3]; FaSSIF, 37° C., 2 h) was 4.8 µg/mL (≈ 10.3 µM) and the pH ([3]; FaSSIF, 37° C., 2 h) was 6.63. The Crystal form ([3]; FaSSIF, 37° C., 2 h) was “Changed”, the “Solubility” value ([3]; FaSSIF, 37° C., 24 h) was 4.3 µg/mL (≈ 9.27 µM) and the pH ([3]; FaSSIF, 37° C., 24 h) was 6.63. For the same molecule, the Crystal form ([3]; FaSSIF, 37° C., 24 h) was “Changed”, the “Solubility” value ([3]; FeSSIF, 37° C., 0.5 h) was 220 µg/mL (≈ 474 µM) and the pH ([3]; FeSSIF, 37° C., 0.5 h) was 5.04. For the same molecule, the Crystal form ([3]; FeSSIF, 37° C., 0.5 h) was “Initial crystal form”, the “Solubility” value ([3]; FeSSIF, 37° C., 2 h) was 180 µg/mL (≈ 388 µM) and the pH ([3]; FeSSIF, 37° C., 2 h) was 5.05. The Crystal form ([3]; FeSSIF, 37° C., 2 h) was “Changed”, the “Solubility” value ([3]; FeSSIF, 37° C., 24 h) was 57 µg/mL (≈ 123 µM) and the pH ([3]; FeSSIF, 37° C., 24 h) was 5.02. The Crystal form ([3]; FeSSIF, 37° C., 24 h) was “Changed”, the “Solubility” value ([3]; SGF, 37° C., 0.5 h) was 120 µg/mL (≈ 259 µM) and the pH ([3]; SGF, 37° C., 0.5 h) was 1.24. The Crystal form ([3]; SGF, 37° C., 0.5 h) was “Initial Crystal form”, the “Solubility” value ([3]; SGF, 37° C., 2 h) was 63 µg/mL (≈ 136 µM) and the pH ([3]; SGF, 37° C., 2 h) was 1.24. For the same molecule, the Crystal form ([3]; SGF, 37° C., 2 h) was “Changed”, the “Solubility” value ([3]; SGF, 37° C., 24 h) was 46 µg/mL (≈ 99.2 µM) and the pH ([3]; SGF, 37° C., 24 h) was 1.23. The Crystal form ([3]; SGF, 37° C., 24 h) was “Changed”.
In the case of `CS(=O)(=O)O.O=C(Nc1ccc(OC(F)(F)Cl)cc1)c1cnc(N2CC[C@@H](F)C2)c(-c2cnccn2)c1` [crystal form I of compound A mesylate, (R)-N-(4-(chlorodifluoromethoxy)phenyl)-6-(3-fluoropyrrolidin-1-yl)-5-(pyrazin-2-yl)nicotinamide mesylate], the water absorption ([1]; 0-80%RH) is reported as “about 3.6%”, the water absorption ([1]; 0-90%RH) is reported as “about 40.3%” and the “crystal form after DVS test (XRPD)” value [1] is reported as “not changed”. The “hygroscopicity (DVS)” value [1] was “hygroscopic”.
With `O=C(Nc1ccc(OC(F)(F)Cl)cc1)c1cnc(N2CC[C@@H](F)C2)c(-c2cnccn2)c1` [the crystal form I of compound A] the “Solubility” value ([4]; solvent: 2-Butanone) was ~73670 µg/mL (≈ 159000 µM), the “Solubility” value ([4]; solvent: Acetone) was ~77000 µg/mL (≈ 166000 µM) and the “Solubility” value ([4]; solvent: Acetonitrile) was ~53250 µg/mL (≈ 115000 µM). For the same molecule, the “Solubility” value ([4]; solvent: Ethanol) was ~1310 µg/mL (≈ 2820 µM), the “Solubility” value ([4]; solvent: Ethyl Acetate) was ~49250 µg/mL (≈ 106000 µM) and the “Solubility” value ([4]; solvent: Isobutanol) was ~730 µg/mL (≈ 1570 µM). For the same molecule, the “Solubility” value ([4]; solvent: Isopropyl Acetate) was ~22100 µg/mL (≈ 47600 µM), the “Solubility” value ([4]; solvent: Isopropyl Alcohol) was ~920 µg/mL (≈ 1980 µM) and the “Solubility” value ([4]; solvent: Methanol) was ~11830 µg/mL (≈ 25500 µM). For the same molecule, the “Solubility” value ([4]; solvent: Methyl Tert-Butyl Ether) was ~2800 µg/mL (≈ 6040 µM), the “Solubility” value ([4]; solvent: Tetrahydrofuran) was ~121000 µg/mL (≈ 261000 µM) and the “Solubility” value ([4]; solvent: Toluene) was ~1230 µg/mL (≈ 2650 µM). For the same molecule, the “Solubility (mg/mL)” value ([4]; solvent: Water) was <<0.55 mg/mL.
With `O=C(Nc1ccc(OC(F)(F)Cl)cc1)c1cnc(N2CC[C@@H](F)C2)c(-c2cnccn2)c1` [the crystal form VI of compound A] the Appearance ([5]; 0 day) was “Off-white powder”, the Content ([5]; 0 day) was 99.40% and the Crystal form ([5]; 0 day) was “The crystal form VI”. For the same molecule, the Impurity content ([5]; 0 day) was 0.87%, the Appearance ([5]; 25° C./92.5%RH, 10 days) was “Off-white powder” and the Content ([5]; 25° C./92.5%RH, 10 days) was 98.40%. For the same molecule, the Crystal form ([5]; 25° C./92.5%RH, 10 days) was “The crystal form VI”, the Hygroscopic weight gain ([5]; 25° C./92.5%RH, 10 days) was 0.34% and the Impurity content ([5]; 25° C./92.5%RH, 10 days) was 0.80%. The Appearance ([5]; 25° C./92.5%RH, 30 days) was “Off-white powder”, the Content ([5]; 25° C./92.5%RH, 30 days) was 98.80% and the Crystal form ([5]; 25° C./92.5%RH, 30 days) was “The crystal form VI”. For the same molecule, the Hygroscopic weight gain ([5]; 25° C./92.5%RH, 30 days) was 2.72%, the Impurity content ([5]; 25° C./92.5%RH, 30 days) was 0.85% and the Appearance ([5]; 40° C./75%RH, 10 days) was “Off-white powder”. For the same molecule, the Content ([5]; 40° C./75%RH, 10 days) was 98.40%, the Crystal form ([5]; 40° C./75%RH, 10 days) was “The crystal form VI” and the Hygroscopic weight gain ([5]; 40° C./75%RH, 10 days) was 1.26%. The Impurity content ([5]; 40° C./75%RH, 10 days) was 0.79%, the Appearance ([5]; 40° C./75%RH, 30 days) was “Off-white powder” and the Content ([5]; 40° C./75%RH, 30 days) was 101.40%. For the same molecule, the Crystal form ([5]; 40° C./75%RH, 30 days) was “The crystal form VI”, the Hygroscopic weight gain ([5]; 40° C./75%RH, 30 days) was 1.26% and the Impurity content ([5]; 40° C./75%RH, 30 days) was 0.80%. The Appearance ([5]; 60° C., 10 days) was “Off-white powder”, the Content ([5]; 60° C., 10 days) was 99.90% and the Crystal form ([5]; 60° C., 10 days) was “The crystal form VI”. For the same molecule, the Impurity content ([5]; 60° C., 10 days) was 0.81%, the Appearance ([5]; 60° C., 30 days) was “Off-white powder” and the Content ([5]; 60° C., 30 days) was 96.90%. The Crystal form ([5]; 60° C., 30 days) was “The crystal form VI”, the Impurity content ([5]; 60° C., 30 days) was 0.84% and the Appearance ([5]; Light, 10 days) was “Off-white powder”. For the same molecule, the Content ([5]; Light, 10 days) was 99.70%, the Crystal form ([5]; Light, 10 days) was “The crystal form VI” and the Impurity content ([5]; Light, 10 days) was 0.85%.
